Source: paper PMC8162404, “Proteomimetic surface fragments distinguish targets by function” (Chemical Science, 2020)

Tests used:
[1] = biological target: T1, RecQ-WH (Escherichia coli, UniProt P15043); assay: Pull-down assay with immobilized protein and LSM libraries; set-up: species or system E. coli; details: H14 library; 1:1 binding assumed; read-out: Surface mapping KD (apparent)
T1 construct: coding for residues 408– 523 of E. coli RecQ; made in house; host or cells: E. coli BL21(DE3)
Procedure, shortened: (§1)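 His-tagged protein immobilized on Co-NTA resin (64 µM) in 20 mM HEPES pH 7.4, 150 mM NaCl, equilibrated 30 min at room temperature with foldamer LSM sublibraries at equimolar total concentration. Unbound fractions quantified by HPLC-MS versus protein-free resin control; apparent KD assumes 1:1 binding.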

[2] = biological target: T2, S100B (Homo sapiens, UniProt P04271); assay: Competition pull-down with native ligand RSK1 (689–735); type: binding; details: H14 library; competitor peptide 200 µM; read-out: Surface mapping KD (apparent), competition
T2 construct: made in house; host or cells: Escherichia coli BL21(DE3)
T2 sequence (P04271 1-92): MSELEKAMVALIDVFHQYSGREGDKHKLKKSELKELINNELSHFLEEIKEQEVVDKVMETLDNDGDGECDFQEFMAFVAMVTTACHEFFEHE

[3] = biological target: T3, Gal-1 (Homo sapiens, UniProt P09382); assay: Competition pull-down with lactose; type: binding; details: H14 library; lactose 10 mM; read-out: Surface mapping KD (apparent), competition
T3 construct: made in house; host or cells: E. coli BL21(DE3)
T3 sequence (P09382 whole entry): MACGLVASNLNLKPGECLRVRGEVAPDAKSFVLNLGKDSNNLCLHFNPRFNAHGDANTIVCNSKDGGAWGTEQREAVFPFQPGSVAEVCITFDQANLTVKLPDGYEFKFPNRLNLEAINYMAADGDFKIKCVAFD
Procedure, shortened: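 His6-tagged proteins immobilized on Co-NTA resin at 64 µM final with 64-member LSM foldamer sublibraries (1 M each, as printed) in pH 7.4 HEPES/NaCl buffers (Ca2+/TCEP per target), 30 min RT; competitor peptides 200 µM final, lactose 10 mM for Gal-1. Bound fractions from LC-MS loss vs protein-free resin; KD assuming 1:1 binding.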

[4] = biological target: T2, S100B; assay: Pull-down assay with immobilized protein and LSM libraries; type: binding; details: H14 library; 1:1 binding assumed; read-out: Surface mapping KD (apparent)
Procedure, shortened: (§2)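 Buffers were HEPES pH 7.4 with 150 mM NaCl, plus 1 mM TCEP and 1 mM CaCl2 (50 mM HEPES) for S100A4 and S100B, 1 mM TCEP for Gal-1, and no additive for RecQ-WH. Immobilized protein at 64 µM was equilibrated 30 min with the LSM sublibrary, and unbound probes were measured by LC-MS.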

[5] = biological target: T4, CaM (Bos taurus, UniProt P62157); assay: Competition pull-down with native ligand TRPV1-Ct15; type: binding, bovine; details: H14 library; competitor peptide 200 µM; read-out: Surface mapping KD (apparent), competition
T4 construct: made in house; host or cells: E. coli BL21 (DE3)

[6] = biological target: T4, CaM; assay: Pull-down assay with immobilized protein and LSM libraries; type: binding, bovine; details: H14 library; 1:2 stoichiometry assumed; read-out: Surface mapping KD (apparent)
Procedure, shortened: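 His-tagged protein immobilized on Co-NTA resin, equilibrated 30 min at room temperature with LSM sublibraries (64 members, […]), equimolar protein to total probe. CaM buffer: 20 mM HEPES pH 7.4, 150 mM NaCl, 5 mM CaCl2. Bound fractions from HPLC-MS loss of unbound probe versus protein-free resin control; Kd derived.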

[7] = biological target: T3, Gal-1; assay: as above; type: binding; details: H14 library; 1:1 binding assumed; read-out: Surface mapping KD (apparent)
Procedure, shortened: as §1

[8] = biological target: T5, S100A4 (Homo sapiens, UniProt P26447); assay: as above; type: binding; details: H14 library; 1:1 binding assumed; read-out: Surface mapping KD (apparent)
T5 construct: made in house; host or cells: Escherichia coli BL21(DE3)
T5 sequence (P26447 whole entry): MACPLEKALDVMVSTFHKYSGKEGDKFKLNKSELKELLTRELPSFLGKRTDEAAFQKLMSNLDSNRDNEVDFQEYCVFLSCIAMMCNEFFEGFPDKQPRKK
Procedure, shortened: as §2

T1 sequence (P15043 408-523): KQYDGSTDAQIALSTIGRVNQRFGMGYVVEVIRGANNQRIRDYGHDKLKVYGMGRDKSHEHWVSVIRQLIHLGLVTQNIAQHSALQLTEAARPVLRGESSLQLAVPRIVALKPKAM

| SMILES | Kd [1] | Kd [2] | Kd [3] | Kd [4] | Kd [5] | Kd [6] | Kd [7] | Kd [8] |
| --- | --- | --- | --- | --- | --- | --- | --- | --- |
| NC(=O)[C@H]1CCCC[C@@H]1NC(=O)C[C@H](Cc1ccccc1)NC(=O)[C@H]1CCCC[C@@H]1NC(=O)[C@H]1CCCC[C@@H]1NC(=O)C[C@H](CC(=O)O)NC(=O)[C@H]1CCCC[C@@H]1N [H14 DF] | 288 µM | 130 µM | 388 µM | 339 µM | 220 µM | – | – | – |
| C[C@@H](CC(=O)N[C@H]1CCCC[C@@H]1C(N)=O)NC(=O)[C@H]1CCCC[C@@H]1NC(=O)[C@H]1CCCC[C@@H]1NC(=O)C[C@H](Cc1ccccc1)NC(=O)[C@H]1CCCC[C@@H]1N [H14 FA] | 282 µM | 330 µM | 151 µM | 253 µM | 309 µM | 3 µM | 130 µM | 58 µM |
| N=C(N)NCCC[C@@H](CC(=O)N[C@H]1CCCC[C@@H]1C(N)=O)NC(=O)[C@H]1CCCC[C@@H]1NC(=O)[C@H]1CCCC[C@@H]1NC(=O)C[C@H](Cc1ccccc1)NC(=O)[C@H]1CCCC[C@@H]1N [H14 FR] | 447 µM | 406 µM | 208 µM | 56 µM | 290 µM | 3 µM | 222 µM | 124 µM |
| CSCC[C@@H](CC(=O)N[C@H]1CCCC[C@@H]1C(N)=O)NC(=O)[C@H]1CCCC[C@@H]1NC(=O)[C@H]1CCCC[C@@H]1NC(=O)C[C@H](CCCCN)NC(=O)[C@H]1CCCC[C@@H]1N [H14 KM] | 459 µM | 140 µM | – | 119 µM | 146 µM | 63 µM | – | 95 µM |
| CC(C)C[C@@H](CC(=O)N[C@H]1CCCC[C@@H]1C(=O)N[C@H]1CCCC[C@@H]1C(=O)N[C@H](CC(=O)N[C@H]1CCCC[C@@H]1C(N)=O)Cc1ccc(O)cc1)NC(=O)[C@H]1CCCC[C@@H]1N [H14 LY] | 239 µM | 154 µM | – | 85 µM | 455 µM | 10 µM | 231 µM | 26 µM |
| CSCC[C@@H](CC(=O)N[C@H]1CCCC[C@@H]1C(=O)N[C@H]1CCCC[C@@H]1C(=O)N[C@H](CC(=O)N[C@H]1CCCC[C@@H]1C(N)=O)Cc1ccccc1)NC(=O)[C@H]1CCCC[C@@H]1N [H14 MF] | 304 µM | 316 µM | 181 µM | 85 µM | 133 µM | 2 µM | 223 µM | 23 µM |
| CSCC[C@@H](CC(=O)N[C@H]1CCCC[C@@H]1C(N)=O)NC(=O)[C@H]1CCCC[C@@H]1NC(=O)[C@H]1CCCC[C@@H]1NC(=O)C[C@H](CCSC)NC(=O)[C@H]1CCCC[C@@H]1N [H14 MM] | 455 µM | 276 µM | – | 174 µM | 448 µM | 16 µM | 183 µM | 14 µM |
| CSCC[C@@H](CC(=O)N[C@H]1CCCC[C@@H]1C(=O)N[C@H]1CCCC[C@@H]1C(=O)N[C@H](CC(=O)N[C@H]1CCCC[C@@H]1C(N)=O)Cc1c[nH]c2ccccc12)NC(=O)[C@H]1CCCC[C@@H]1N [H14 MW] | 197 µM | 131 µM | 172 µM | 44 µM | 208 µM | 2 µM | 141 µM | 41 µM |
| CSCC[C@@H](CC(=O)N[C@H]1CCCC[C@@H]1C(=O)N[C@H]1CCCC[C@@H]1C(=O)N[C@H](CC(=O)N[C@H]1CCCC[C@@H]1C(N)=O)Cc1ccc(O)cc1)NC(=O)[C@H]1CCCC[C@@H]1N [H14 MY] | 263 µM | 330 µM | 133 µM | 176 µM | 402 µM | 15 µM | 98 µM | 90 µM |
| C[C@@H](O)[C@@H](CC(=O)N[C@H]1CCCC[C@@H]1C(=O)N[C@H]1CCCC[C@@H]1C(=O)N[C@H](CC(=O)N[C@H]1CCCC[C@@H]1C(N)=O)Cc1ccccc1)NC(=O)[C@H]1CCCC[C@@H]1N [H14 TF] | 407 µM | 294 µM | 220 µM | 44 µM | 94 µM | 163 µM | 140 µM | 43 µM |
